Assay results as given in the supplement of paper PMC10307832.

Tests used:
Assay in all cases: relative viability (nuclei count vs DMSO), 5 days (fraction); higher = more cells survive
[1] = compound: CC[C@H](C)N1C=C(C2=C(C=C(C=C21)C3=CN=C(C=C3)N4CCNCC4)C(=O)NCC5=C(C=C(NC5=O)C)C)C [GSK126] + Cc1nc(Nc2ncc(C(=O)Nc3c(C)cccc3Cl)s2)cc(N2CCN(CCO)CC2)n1 [Dasatinib] (partner 0.075 µM)
Procedure, shortened: (§1)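 A single step with final 0.05% Triton X-100, 1% formaldehyde and 1 ug/ml Hoechst fixed the cells and stained nuclei 5 days after treatment. Lung cancer cell lines in 1536-well plates had been treated by pin tool the day after seeding with one drug alone or a fixed anchor-drug dose plus five library-drug doses (not always all listed) in √10 steps, and nuclei were counted on 4× images. Relative viability is the ratio of nuclei in treated wells to nuclei in vehicle wells, taken as the median of duplicate plates.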

[2] = compound: C1CC(C1)(C(=O)O)C(=O)O.[NH2-].[NH2-].[Pt+2] [Carboplatin] + CS(=O)(=O)CCNCc1ccc(-c2ccc3ncnc(Nc4ccc(OCc5cccc(F)c5)c(Cl)c4)c3c2)o1 [Lapatinib] (partner 2 µM)
Procedure, shortened: as §1

[3] = compound: CC[C@H](C)N1C=C(C2=C(C=C(C=C21)C3=CN=C(C=C3)N4CCNCC4)C(=O)NCC5=C(C=C(NC5=O)C)C)C [GSK126] + CS(=O)(=O)CCNCc1ccc(-c2ccc3ncnc(Nc4ccc(OCc5cccc(F)c5)c(Cl)c4)c3c2)o1 [Lapatinib] (partner 2 µM)
Procedure, shortened: as §1

[4] = compound: CC[C@H](C)N1C=C(C2=C(C=C(C=C21)C3=CN=C(C=C3)N4CCNCC4)C(=O)NCC5=C(C=C(NC5=O)C)C)C [GSK126] + CC(=O)Nc1cccc(-n2c(=O)n(C3CC3)c(=O)c3c(Nc4ccc(I)cc4F)n(C)c(=O)c(C)c32)c1 [Trametinib] (partner 0.02 µM)
Procedure, shortened: as §1

Cell Line	relative viability ([1]; first compound 0.08 µM)	relative viability ([1]; first compound 0.253 µM)	relative viability ([1]; first compound 0.8 µM)	relative viability ([1]; first compound 2.53 µM)	relative viability ([1]; first compound 8 µM)	relative viability ([2]; first compound 0.08 µM)	relative viability ([2]; first compound 0.253 µM)	relative viability ([2]; first compound 0.8 µM)	relative viability ([2]; first compound 2.53 µM)	relative viability ([2]; first compound 8 µM)	relative viability ([3]; first compound 0.08 µM)	relative viability ([3]; first compound 0.253 µM)	relative viability ([3]; first compound 0.8 µM)	relative viability ([3]; first compound 2.53 µM)	relative viability ([3]; first compound 8 µM)	relative viability ([4]; first compound 0.08 µM)	relative viability ([4]; first compound 0.253 µM)	relative viability ([4]; first compound 0.8 µM)	relative viability ([4]; first compound 2.53 µM)	relative viability ([4]; first compound 8 µM)
201T	0.558	0.639	0.61	0.607	0.519	1.06	1.08	1.11	1.08	0.99	1.04	1.04	1.09	1.1	1.16	0.698	0.693	0.726	0.746	0.726
NCI-H2023	0.641	0.566	0.584	0.627	0.661	0.941	1.21	0.954	0.68	0.257	1.33	0.797	1.04	1.23	1.2	0.718	0.6	0.646	0.533	0.603
NCI-H1395	0.464	0.439	0.406	0.399	0.427	1.23	1.06	0.984	0.841	0.607	1.04	0.973	1.3	1.14	1.03	1.07	0.955	1.05	0.994	0.964
NCI-H2347	0.257	0.331	0.347	0.305	0.304	1.02	0.926	0.918	0.949	0.888	1.04	1.04	0.917	0.994	0.94	0.289	0.276	0.261	0.303	0.298
LXF-289	0.31	0.223	0.19	0.257	0.358	0.908	0.936	0.91	0.89	0.891	0.92	0.84	0.894	0.885	0.881	0.66	0.665	0.7	0.611	0.693
EMC-BAC-2	0.346	0.339	0.176	0.259	0.332	0.883	0.886	0.924	0.837	0.88	0.913	0.899	0.89	0.88	0.944	0.849	0.832	0.92	0.676	0.859
LC-2-ad	0.606	0.66	0.565	0.643	0.585	0.967	0.981	0.938	0.991	0.844	1.05	1.03	0.9	0.894	1.05	0.926	0.9	0.91	0.885	0.957
NCI-H647	0.193	0.206	0.171	0.111	0.179	1.29	1.1	1.02	0.98	0.862	1.22	1.01	0.927	1.11	0.865	0.55	0.461	0.381	0.44	0.413
NCI-H1734	0.573	0.505	0.463	0.467	0.449	1.01	1.07	1.06	1.01	0.833	1.07	1	1.03	1.18	1.15	0.801	0.63	0.662	0.731	0.766
LOU-NH91	0.552	0.609	0.538	0.594	0.567	0.84	0.755	0.838	0.819	0.735	0.812	0.77	0.755	0.882	0.871	0.813	0.771	0.765	0.821	0.761
NCI-H1793	0.441	0.373	0.356	0.431	0.405	0.941	0.49	0.485	0.628	0.833	0.867	0.467	0.647	0.583	0.629	0.432	0.423	0.457	0.384	0.338
RERF-LC-KJ	0.883	0.886	0.756	0.717	0.703	0.854	0.838	0.822	0.841	0.726	0.927	0.854	0.822	0.889	0.867	0.902	0.981	0.733	0.841	0.825
H3255	0.396	0.383	0.393	0.419	0.346	0.276	0.248	0.269	0.257	0.236	0.24	0.243	0.302	0.272	0.269	0.685	0.628	0.639	0.546	0.571
A-427	0.76	0.638	0.634	0.799	0.635	1.1	1.05	1.04	1.04	0.985	1.14	1.1	1.05	1.07	0.962	0.845	0.762	0.712	0.757	0.795
